From patent US4758557A, “Cephalosporin derivatives and bactericides containing the same” (Meiji Seika Kaisha, Ltd., priority 1985, dated 1988)
Converted amounts (≈) assume the structure as drawn. Where two headings read alike, the source gives them in different places.

Columns and labels:
Test in all cases: MIC in agar plate culture-dilution assay
Assay type in all cases: cell-based
[1] = test system: Pseudomonas aeruginosa M-0148; settings: M0148
Description: (§1) The compounds of the formula (I) and salts thereof of the present invention are new, and have high and broad antibacterial activity capable of inhibiting the growth of pathogenic microorganisms of a broad range including gram-positive and gram-negative bacteria. In order to show the usability of the compounds of the formula (I), the antibacterial activity of some typical compounds of the formula (I) was actually measured, and the results are given in the following Table-1.
(§2) MIC in agar plate culture-dilution assay (Y/ml)

Proteus rettgeri GN-624 = settings: Providencia rettgeri, GN624
Description: as §1, §2

[2] = test system: Pseudomonas aeruginosa IAM-1007; settings: IAM1007
Description: as §1, §2

[3] = test system: Serratia marcescens No. 1
Description: as §1, §2

[4] = test system: Pseudomonas maltophilia M-0627; settings: Stenotrophomonas maltophilia, M0627
Description: as §1, §2

[5] = test system: Bacillus subtilis ATCC 6633; settings: ATCC6633
Description: as §1, §2

[6] = test system: Enterobacter cloacae GN-7471; settings: GN7471
Description: as §1, §2

Proteus vulgaris GN-76 = settings: GN76
Description: as §1, §2

[7] = test system: Pseudomonas aeruginosa E-2; settings: E2
Description: as §1, §2

[8] = test system: Klebsiella pneumoniae GN-69; settings: GN69
Description: as §1, §2

[9] = test system: Staphylococcus aureus 209P JC-1
Description: as §1, §2

[10] = test system: Escherichia coli NIHJ JC-2; settings: NIHJJC2
Description: as §1, §2

[11] = test system: Citrobacter freundii GN-346; settings: GN346
Description: as §1, §2

[12] = test system: Staphylococcus aureus Smith (1)
Description: as §1, §2

[13] = Pseudomonas aeruginosa M-0148, agar plate culture-dilution, read-out: MIC
[14] = Proteus rettgeri GN-624, agar plate culture-dilution, read-out: MIC
[15] = Pseudomonas aeruginosa IAM-1007, agar plate culture-dilution, read-out: MIC
[16] = Serratia marcescens No. 1, agar plate culture-dilution, read-out: MIC
[17] = Pseudomonas maltophilia M-0627, agar plate culture-dilution, read-out: MIC
[18] = Bacillus subtilis ATCC 6633, agar plate culture-dilution, read-out: MIC
[19] = Enterobacter cloacae GN-7471, agar plate culture-dilution, read-out: MIC
[20] = Proteus vulgaris GN-76, agar plate culture-dilution, read-out: MIC
[21] = Pseudomonas aeruginosa E-2, agar plate culture-dilution, read-out: MIC
[22] = Klebsiella pneumoniae GN-69, agar plate culture-dilution, read-out: MIC
[23] = Staphylococcus aureus 209P JC-1, agar plate culture-dilution, read-out: MIC
[24] = Citrobacter freundii GN-346, agar plate culture-dilution, read-out: MIC
[25] = Staphylococcus aureus Smith (1), agar plate culture-dilution, read-out: MIC

| Structure (SMILES) | MIC [1, 13] [µg/mL] | MIC (Proteus rettgeri GN-624; [14]) [µg/mL] | MIC [2, 15] [µg/mL] | MIC [3, 16] [µg/mL] | MIC [4, 17] [µg/mL] | MIC [5, 18] [µg/mL] | MIC [6, 19] [µg/mL] | MIC (Proteus vulgaris GN-76; [20]) [µg/mL] | MIC [7, 21] [µg/mL] | MIC [8, 22] [µg/mL] | MIC [9, 23] [µg/mL] | MIC [10] [µg/mL] | MIC [11, 24] [µg/mL] | MIC [12, 25] [µg/mL] | further results |
| --- | --- | --- | --- | --- | --- | --- | --- | --- | --- | --- | --- | --- | --- | --- | --- |
| Nc1nc(C(NC(=O)c2cc(=O)c(O)cn2O)C(=O)N[C@@H]2C(=O)N3C(C(=O)[O-])=C(CSc4cc[n+](CC(=O)O)c5c4CCC5)CS[C@H]23)cs1 (stereo partly drawn) [Example 17, (6R,7R)7-[(RS)2-(2-Aminothiazol-4-yl)-2-(1,5-dihydroxy-4-pyridone-2-carboxamido)acetamido]-3-(2,3-cyclopenteno-1-carboxylmethylpyridinium-4-yl)-thiomethyl-ceph-3-em-4-carboxylate] | 1.56 (≈ 2.14 µM) | 0.1 (≈ 0.137 µM) | 0.05 (≈ 0.0685 µM) | 0.2 (≈ 0.274 µM) | 6.25 (≈ 8.56 µM) | 3.13 (≈ 4.29 µM) | 0.78 (≈ 1.07 µM) | 0.2 (≈ 0.274 µM) | 0.1 (≈ 0.137 µM) | 0.1 (≈ 0.137 µM) | 3.13 (≈ 4.29 µM) | < 0.025 | 0.78 (≈ 1.07 µM) | 3.13 (≈ 4.29 µM) | – |
| Nc1nc(C(NC(=O)c2cc(=O)c(O)cn2O)C(=O)N[C@@H]2C(=O)N3C(C(=O)[O-])=C(CSc4cc[n+](C5CC5)cc4)CS[C@H]23)cs1 (stereo partly drawn) [Example 8, (6R,7R)7-[(RS)2-(2-Aminothiazol-4-yl)-2-(1,5-dihydroxy-4-pyridone-2-carboxamido)acetamido]-3-(1-cycloproylpyridinium-4-yl)thiomethyl-ceph-3-em-4-carboxylate] | 1.56 (≈ 2.32 µM) | 0.1 (≈ 0.149 µM) | 0.2 (≈ 0.298 µM) | 0.2 (≈ 0.298 µM) | – | 3.13 (≈ 4.66 µM) | 1.56 (≈ 2.32 µM) | 0.2 (≈ 0.298 µM) | 0.1 (≈ 0.149 µM) | 0.05 (≈ 0.0744 µM) | 1.56 (≈ 2.32 µM) | 0.05 (≈ 0.0744 µM) | 0.78 (≈ 1.16 µM) | 1.56 (≈ 2.32 µM) | – |
| Nc1nc(C(NC(=O)c2cc(=O)c(O)cn2O)C(=O)N[C@@H]2C(=O)N3C(C(=O)O)=C(CSc4ccnc5c4CCC5)CS[C@H]23)cs1 (stereo partly drawn) [Example 15] | 0.2 (≈ 0.298 µM) | 0.2 (≈ 0.298 µM) | 0.2 (≈ 0.298 µM) | 0.39 (≈ 0.581 µM) | 0.78 (≈ 1.16 µM) | 3.13 (≈ 4.66 µM) | 0.78 (≈ 1.16 µM) | 0.1 (≈ 0.149 µM) | < 0.025 | 0.05 (≈ 0.0744 µM) | 1.56 (≈ 2.32 µM) | 0.1 (≈ 0.149 µM) | 0.2 (≈ 0.298 µM) | 3.13 (≈ 4.66 µM) | – |
| Cn1c(SCC2=C(C(=O)O)N3C(=O)[C@@H](NC(=O)C(NC(=O)c4cc(=O)c(O)cn4O)c4csc(N)n4)[C@H]3SC2)nnc(O)c1=O (stereo partly drawn) [Example 22, (6R,7R)7-[(RS)2-(2-Aminothaizol-4-yl)-2-(1,5-dihydroxy-4-pyridone-2-carboxamido)acetamido]-3-(4,5-dihydro-4-methyl-5-oxo-6-hydroxy-1,2,4-triazin-3-yl)thiomethyl-ceph-3-em-4-carboxylic acid] | 0.39 (≈ 0.574 µM) | 0.2 (≈ 0.294 µM) | 0.39 (≈ 0.574 µM) | 0.2 (≈ 0.294 µM) | 1.56 (≈ 2.3 µM) | 3.13 (≈ 4.61 µM) | 0.78 (≈ 1.15 µM) | 0.1 (≈ 0.147 µM) | 0.1 (≈ 0.147 µM) | 0.05 (≈ 0.0736 µM) | 3.13 (≈ 4.61 µM) | 0.05 (≈ 0.0736 µM) | 0.39 (≈ 0.574 µM) | 3.13 (≈ 4.61 µM) | – |
| NC(=O)C[n+]1ccc(SCC2=C(C(=O)[O-])N3C(=O)[C@@H](NC(=O)C(NC(=O)c4cc(=O)c(O)cn4O)c4csc(N)n4)[C@H]3SC2)cc1 (stereo partly drawn) [Example 6, (6R,7R)7-[(RS)2-(2-Aminothiazol-4-yl)-2-(1,5-dihydroxy-4-pyridone-2-carboxamido)acetamido]-3-(1-carbamoylmethylpyridinium-4-yl)thiomethyl-ceph-3-em-4-carboxylate] | 0.78 (≈ 1.13 µM) | 0.2 (≈ 0.29 µM) | 0.1 (≈ 0.145 µM) | 0.2 (≈ 0.29 µM) | – | 3.13 (≈ 4.54 µM) | 1.56 (≈ 2.27 µM) | 0.2 (≈ 0.29 µM) | 0.05 (≈ 0.0726 µM) | 0.1 (≈ 0.145 µM) | 1.56 (≈ 2.27 µM) | 0.05 (≈ 0.0726 µM) | 1.56 (≈ 2.27 µM) | 3.13 (≈ 4.54 µM) | – |
| Nc1nc(C(NC(=O)c2cc(=O)c(O)cn2O)C(=O)N[C@@H]2C(=O)N3C(C(=O)[O-])=C(CSc4cc[n+](CCO)cc4)CS[C@H]23)cs1 (stereo partly drawn) [Example 5, (6R,7R)7-[(RS)2-(2-Aminothiazol-4-yl)-2-(1,5-dihydroxy-4-pyridone-2-carboxamido)acetamido]-3-[1-(2-hydoroxyethyl)pyridinium-4-yl]thiomethyl-ceph-3-em-4-carboxylate] | 0.78 (≈ 1.15 µM) | 0.1 (≈ 0.148 µM) | 0.1 (≈ 0.148 µM) | 0.2 (≈ 0.296 µM) | – | 3.13 (≈ 4.63 µM) | 1.56 (≈ 2.31 µM) | 0.39 (≈ 0.577 µM) | 0.05 (≈ 0.074 µM) | 0.05 (≈ 0.074 µM) | 1.56 (≈ 2.31 µM) | 0.05 (≈ 0.074 µM) | 0.78 (≈ 1.15 µM) | 3.13 (≈ 4.63 µM) | – |
| CC(C)(O/N=C(\C(=O)N[C@@H]1C(=O)N2C(C(=O)[O-])=C(C[n+]3ccccc3)CS[C@H]12)c1csc(N)n1)C(=O)O [B, ceftazidime, reference compound] | – | – | – | – | – | – | – | – | – | – | – | 0.2 (≈ 0.366 µM) | – | – | MIC ([1]; Pseudomonas aeruginosa): 3.13 µg/mL (≈ 5.73 µM); MIC (Proteus rettgeri GN-624): 0.39 µg/mL (≈ 0.714 µM); MIC ([2]; Pseudomonas aeruginosa): 1.56 µg/mL (≈ 2.85 µM); MIC ([3]; Serratia marcescens, NO.1): < 0.025 µg/mL; MIC [4]: 50 µg/mL (≈ 91.5 µM); MIC ([5]; Bacillus subtilis): 6.25 µg/mL (≈ 11.4 µM); MIC ([6]; Enterobacter cloacae): 3.13 µg/mL (≈ 5.73 µM); MIC (Proteus vulgaris GN-76; Proteus vulgaris): 0.05 µg/mL (≈ 0.0915 µM); MIC ([7]; Pseudomonas aeruginosa): 1.56 µg/mL (≈ 2.85 µM); MIC ([8]; Klebsiella pneumoniae): 0.1 µg/mL (≈ 0.183 µM); MIC ([9]; Staphylococcus aureus, 209P): 3.13 µg/mL (≈ 5.73 µM); MIC ([11]; Citrobacter freundii): 0.78 µg/mL (≈ 1.43 µM); MIC ([12]; Staphylococcus aureus): 3.13 µg/mL (≈ 5.73 µM) |
| C[n+]1ccc(SCC2=C(C(=O)[O-])N3C(=O)[C@@H](NC(=O)C(NC(=O)c4cc(=O)c(O)c[nH]4)c4csc(N)n4)[C@H]3SC2)cc1 (stereo partly drawn) [A, reference compound] | 50 (≈ 79.4 µM) | 1.56 (≈ 2.48 µM) | 6.25 (≈ 9.93 µM) | 0.2 (≈ 0.318 µM) | 50 (≈ 79.4 µM) | 1.56 (≈ 2.48 µM) | 3.13 (≈ 4.97 µM) | 0.78 (≈ 1.24 µM) | 0.2 (≈ 0.318 µM) | 0.2 (≈ 0.318 µM) | 0.78 (≈ 1.24 µM) | 0.1 (≈ 0.159 µM) | 0.39 (≈ 0.619 µM) | 0.78 (≈ 1.24 µM) | – |
| C[n+]1ccc(SCC2=C(C(=O)[O-])N3C(=O)[C@@H](NC(=O)C(NC(=O)c4cc(=O)c(O)cn4O)c4csc(N)n4)[C@H]3SC2)c2c1CCC2 (stereo partly drawn) [Example 14, (6R,7R)7-[(RS)2-(2-Aminothiazol-4yl)-2-(1,5-dihydroxy-4-pyridone-2-carboxamido)acetamido]-3-(2,3-cyclopenteno-1-methylpyridinium-4-yl)-thiomethyl-ceph-3-em-4-carboxylate] | 0.2 (≈ 0.292 µM) | 0.1 (≈ 0.146 µM) | < 0.025 | 0.1 (≈ 0.146 µM) | 6.25 (≈ 9.11 µM) | 6.25 (≈ 9.11 µM) | 0.78 (≈ 1.14 µM) | 0.1 (≈ 0.146 µM) | < 0.025 | < 0.025 | 1.56 (≈ 2.27 µM) | 0.05 (≈ 0.0729 µM) | 0.1 (≈ 0.146 µM) | 1.56 (≈ 2.27 µM) | – |
| Nc1nc(C(NC(=O)c2cc(=O)c(O)cn2O)C(=O)N[C@@H]2C(=O)N3C(C(=O)O)=C(CSc4cnns4)CS[C@H]23)cs1 (stereo partly drawn) [Example 25, (6R,7R)7-[(RS)2-(2-Aminothiazol-4-yl)-2-(1,5-dihydroxy-4-pyridone-2-carboxamido)acetamido]-3-(1,2,3-thiadiazol-5-yl)thiomethyl-ceph-3-em-4-carboxylic acid] | 0.2 (≈ 0.313 µM) | 3.13 (≈ 4.9 µM) | 0.1 (≈ 0.157 µM) | 0.2 (≈ 0.313 µM) | 1.56 (≈ 2.44 µM) | 3.13 (≈ 4.9 µM) | 6.25 (≈ 9.79 µM) | 0.1 (≈ 0.157 µM) | 0.05 (≈ 0.0783 µM) | 0.05 (≈ 0.0783 µM) | 3.13 (≈ 4.9 µM) | 0.05 (≈ 0.0783 µM) | 0.78 (≈ 1.22 µM) | 6.25 (≈ 9.79 µM) | – |
| C[n+]1cccc(SCC2=C(C(=O)[O-])N3C(=O)[C@@H](NC(=O)C(NC(=O)c4cc(=O)c(O)cn4O)c4csc(N)n4)[C@H]3SC2)c1 (stereo partly drawn) [Example 4, (6R,7R)7-[(RS)2-(2-Aminothiazol-4-yl)-2-(1,5-dihydroxy-4-pyridone-2-carboxamido)acetamido]-3-(1-methylpyridinium-3-yl)thiomethyl-ceph-3-em-4-carboxylate] | 0.39 (≈ 0.604 µM) | 0.2 (≈ 0.31 µM) | 0.2 (≈ 0.31 µM) | 0.2 (≈ 0.31 µM) | – | 12.5 (≈ 19.4 µM) | 3.13 (≈ 4.85 µM) | 0.39 (≈ 0.604 µM) | 0.1 (≈ 0.155 µM) | 0.1 (≈ 0.155 µM) | 3.13 (≈ 4.85 µM) | 0.1 (≈ 0.155 µM) | 6.25 (≈ 9.68 µM) | 3.13 (≈ 4.85 µM) | – |
